Experimental data: patent US20240382473A1, “Combination Therapies for Treatment of Myelodysplastic Syndrome” (priority 2019, published 2024)

Experiments:
MDS BMMC's = assay: Cell viability following 48 hours treatment (FIGS. 26A/26B; IC50 in MDS BMMC's); type: cell-based
Source text: (§1) Additionally, an assay has been tested in bone marrow mononuclear cells (BMMCs) from AML and MDS patients to examine MCL-1 dependency prior to therapy with alvocidib. […] Combination studies are currently under investigation to determine whether enhanced anti-cancer activity is observed through pharmacologic downregulation of MCL-1 via CDK9 inhibition by alvocidib and upregulation of the MCL-1 antagonist NOXA after HMA exposure.
FIGS. 26A and 26B are scatter plots showing cell viability following 48 hours treatment at indicated concentrations of azacytidine (alone) or alvocidib (alone). FIG. 26A is a plot of cell viability following 48-hour treatment against indicated concentrations of azacitidine. […] FIG. 26B is a plot of cell viability following 48-hour treatment against indicated concentrations of alvocidib.

[1] = tested on: MCL-1 expression in MV4-11 cells; assay: Western blot of MCL-1 protein in MV4-11 cells treated with alvocidib; type: cell-based
Source text: FIG. 9 is an illustration of a proposed mechanism by which alvocidib inhibits expression of MCL-1 by inhibiting CDK9.

[2] = tested on: RNA pol II phosphorylation and MCL-1 expression in MV-4-11 AML cells; assay: Flow cytometry of RNA pol II phosphorylation and MCL-1 expression in MV-4-11 AML cells; type: cell-based; conditions: 24-hour treatment
[3] = tested on: pRpb1 and MCL1 in primary MDS BMMCs; assay: pRpb1 and MCL1 levels in MDS patient cells after alvocidib; type: cell-based, human; conditions: relative to DMSO
Source text: It has been shown that alvocidib reduces RNA pol II phosphorylation and MCL-1 expression in vitro. […] Phospho-RNA polymerase (pRpb1) and MCL-1 (MCL1) levels are decreased after alvocidib treatment in MDS patient cells (FIG. 23). Levels are indicated as a percent relative to levels measured for a DMSO treated sample. Numbers in parenthesis represent concentrations in nM for each alvocidib (Alvo) treatment.
as §1, with “alvocidib. Approximately 25% of AML patient BMMCs and 60% of MDS patient BMMCs are MCL-1 dependent. Azacitidine and decitabine increased NOXA expression in AML cell line models.” for “alvocidib.”

[4] = tested on: MCL-1 and NOXA expression in MV-4-11 cells; assay: Western blot of NOXA and MCL-1 in MV-4-11 cells, alvocidib and azacytidine; type: cell-based; conditions: with azacytidine
Source text: FIG. 28A is an overview of an experimental used to evaluate an interaction between alvocidib and azacytidine with regard to MCL-1 and NOXA expression. FIG. 28B is a Western blot showing NOXA and MCL-1 levels in cells treated according to the experiment summarized in FIG. 28A at indicated drug concentrations.

MOLM13 xenograft model = assay: MOLM13 xenograft model, tumor volume and survival; type: in vivo; conditions: aggressive daily dosing, tumor bearing mice
Method: FIGS. 31A and 31B show results from sequential dosing of alvocidib and HMAs in a MOLM13 model for MDS/sAML. HMA dosing sensitized AML cells to sequential dosing and improved survival in vivo. Alvocidib, azacytidine, and decitabine activity were assessed in the MOLM13 xenograft model. FIG. 31A is a plot of tumor volume over time and FIG. 31B is a plot of percent survival over time. Mice were dosed with alvocidib, qdx2, and/or an HMA, qdx3 on a weekly basis. Doses are indicated in mg/kg (mpk).
[…] show results from aggressive daily dosing of alvocidib and decitabine in the MOLM13 model. Tumor bearing mice were treated. Doses and schedule are indicated. FIG. 32A plots tumor volume following treatment and FIG. 32B plots body weight following treatment.

[5] = tested on: luciferase expressing MV4-11 model; assay: Luciferase expressing MV4-11 AML xenograft model; type: in vivo; conditions: alvocidib alone
THP-1 AML model = assay: THP-1 AML xenograft model; type: in vivo; conditions: alvocidib alone
OCI AML3 xenograft model = assay: OCI AML3 xenograft model; type: in vivo
[6] = tested on: NOXA and MCL-1 expression in CD34+ MDS BMMNC; assay: Pharmacodynamic marker study, Western blot NOXA/MCL-1 in CD34+ MDS BMMNC; type: cell-based, human; conditions: Patient 0219; azacitidine 0.3 or 0.6 μM 24 hours, then alvocidib 0.1 μM 6 hours
Method: A pharmacodynamic maker study was performed for azaditidine and alvocidib using MDS patient-derived BMMNC from Cureline. CD34^+ cells were isolated by CD34 MicroBead Kit (Miltenyi Biotec) and cultured in StemSpan™ SFEM II with StemSpan™ CD34^+ Expansion Supplement (STEMCELL Technologies). […] Protein was extracted using RIPA buffer with protease and phosphatase inhibitor cocktail. Protein expression was assessed by Western blot using NOXA (CST, Cat #14766S), MCL-1(CST, Cat #392245) and β-actin (CST, Cat #4967L) antibodies. Apoptotic activity was assessed by Caspase-Glo® 3/7 assay (Promega).

CD34+ MDS BMMNC [7] = assay: Caspase-Glo 3/7 apoptotic activity in CD34+ MDS BMMNC (Example 17 efficacy study); type: cell-based, human; conditions: azacitidine 100 nM 24 hours, alvocidib 100 nM 24 hours
Method: CD34^+ cells were isolated by CD34 MicroBead Kit (Miltenyi Biotec) and cultured in StemSpan™ SFEM II with StemSpan™ CD34^+ Expansion Supplement (STEMCELL Technologies). […] Apoptotic activity was assessed by Caspase-Glo® 3/7 assay (Promega).

clinical = conditions: human, in vivo; for AUC(0-t): 75 mg/m2, AUC(0-27); for Cmax: 75 mg/m2, Cmax; for Tmax: 75 mg/m2, Tmax
Source text: Plasma PK analyses for alvocidib and known metabolites, if any, and dose proportionality will be determined on Days 8 and 9 (for patients receiving alvocidib following DEC) or Days 10 and 11 (for patients receiving alvocidib following AZA) of Cycle 1 in all patients enrolled in the study, according to Table 5 or Table 6: […]

AML patients = assay: NOXA priming of pre-treatment bone marrow versus response to alvocidib in AML patients; type: in vivo, human; conditions: patients with pre-treatment bone marrow NOXA priming greater than or equal to 40%
Source text: Furthermore, high NOXA Priming (MCL-1 dependence) is predictive of alvocidib sensitivity in AML patients. […] FIG. 16A is a box-plot showing that high NOXA priming (MCL-1 dependence) is predictive of alvocidib sensitivity in acute myeloid leukemia (AML) patients. The box-plot plots NOXA priming in complete remission and no response patient bone marrow samples taken from patients prior to being treated with alvocidib. […] NR=no response). The box-plot plots NOXA priming in complete remission and no response patient bone marrow samples taken from patients prior to being treated with 7+3 chemotherapy.

circulating blasts = conditions: three-day dosing, in the clinic; cited from earlier work
[8] = tested on: NOXA expression in MV-4-11 AML cells / MOLM13 cells; assay: Western blot for NOXA expression in AML cell lines treated with HMAs; type: cell-based
Method: (§2) In the decitabine experiments (FIGS. 24 and 36), the MV-4-11 AML cell line and MOLM13 cell line model for secondary AML (prior MDS) were used. MV-4-11 AML cells (or MOLM13 cells as indicated) were treated with indicated concentrations of decitabine for indicated times, and protein was assessed by Western blot for NOXA expression. […] FIGS. 24A and 24C are Western blots and FIG. 24B is a bar graph of mRNA concentrations. […] The Western blot was prepared from a MOLM13 xenograft treated with decitabine at 1 mg/kg IP for 24 hours.
In the azacitidine experiments (FIG. 25), MV-4-11 AML cells were treated with indicated concentrations of azacitidine for 24 hours and protein assessed by Western blot for NOXA expression.

MV-4-11 cells = assay: MCL-1 dependency assay (T-MS1, Dioc6) in MV-4-11 cells; type: cell-based; conditions: for MCL-1 dependency versus DMSO controls: 24 hours
CD34+ MDS BMMNC [9] = assay: Caspase-Glo 3/7 apoptotic activity in CD34+ MDS BMMNC (Example 16); type: cell-based, human; conditions: then DMSO or alvocidib 0.1 μM 6 hours
Method: A pharmacodynamic maker study was performed for azaditidine and alvocidib using MDS patient-derived BMMNC from Cureline. CD34^+ cells were isolated by CD34 MicroBead Kit (Miltenyi Biotec) and cultured in StemSpan™ SFEM II with StemSpan™ CD34^+ Expansion Supplement ([…] Technologies). Cells were seeded in 6-well plates and treated with DMSO or azacitidine (0.3 or 0.6 μM) for 24 hours. Following that, DMSO or alvocidib (0.1 μM) was sequentially added, and the cells were incubated for an additional 6 hours. Protein was extracted using RIPA buffer with protease and phosphatase inhibitor cocktail. Protein expression was assessed by Western blot using NOXA (CST, Cat #14766S), MCL-1(CST, Cat #392245) and β-actin (CST, Cat #4967L) antibodies. Apoptotic activity was assessed by Caspase-Glo® 3/7 assay (Promega).

[10] = tested on: MDS patient-derived BMMCs (blasts); assay: T-MS1 based MCL-1 dependency assay on MDS patient blasts; type: cell-based, human
Method: To determine the patients' cells' dependency on MCL-1 anti-apoptotic protein for survival, the MCL-1 binding protein, MS I with N-terminal modifications for improved cell penetrance was utilized. The modified peptide is referred to as T-MS1. When added to cells, T-MS1 crosses the plasma membrane and antagonizes MCL-I, leading to mitochondrial outer membrane […] (MOMP) formation and subsequently, depolarization of the mitochondria. Mitochondrial potential was assessed using the cationic dye, DiOC2(3), which accumulates in negatively-charged, healthy mitochondria. Fresh or previously frozen MDS bone marrow cells were treated with azacitidine or DMSO control in media containing RPMI+10% FBS+pen/strep for 48 hours prior to being interrogated with T-MS1. After blocking and staining with antibody cocktail to gate on MDS blasts, T-MS1 was added and cells were incubated for 30 minutes at 37° C. After T-MS1 treatment, cells were washed and stained with cationic dye, Dioc6, for 90 minutes to assess mitochondrial depolarization via flow cytometric analysis. Priming % was calculated using the formula: […]
For concordance with prior priming values, an additional calibration factor of 1.6 was applied to patient priming values.
To determine the patients' cells' MCL-1 dependency following treatment with azacitidine, MDS patient-derived BMMCs were treated with DMSO, 0.3 μM azacitidine, 1 μM azacitidine or 2.5 μM azacitidine for 48-72 hours before being assessed by the MCL-1 dependency assay.

[11] = tested on: NOXA expression in MOLM13 xenograft; assay: Western blot for NOXA from MOLM13 xenograft treated with decitabine; type: in vivo; conditions: decitabine 1 mg/kg IP, 24 hours
Method: as §2

CN1CC[C@H](c2c(O)cc(O)c3c(=O)cc(-c4ccccc4Cl)oc23)[C@H](O)C1 [alvocidib]
IC50 (MDS BMMC's): ~100 nM | MCL-1 protein in response to alvocidib (Western blot) ([1]; FIG. 8 left panel): dose-dependent decrease | duration of knock-down of MCL-1 ([1]; MV4-11 cells, 80 nM alvocidib): exceeds 96 hours | inhibition of RNA pol II phosphorylation and MCL-1 expression [2]: dose-dependent | Phospho-RNA polymerase (pRpb1) and MCL-1 (MCL1) levels [3]: decreased | Phospho-RNA polymerase (pRpb1) and MCL-1 (MCL1) levels ([3]; listed as Alvocidib): dose dependent reduction | MCL-1 and NOXA levels (Western blot) [4]: inhibits upregulation of MCL-1 by azacytidine without affecting NOXA induction | tumor growth inhibition (% TGI) (MOLM13 xenograft model): 75.8% | total flux count [5]: complete abrogation | TGI (THP-1 AML model): 30.8% | tumor growth inhibition (% TGI) (OCI AML3 xenograft model): 55.0% | NOXA and MCL-1 protein expression (Western blot) versus DMSO [6]: suppressed MCL-1 expression | increase of apoptotic activity versus DMSO (CD34+ MDS BMMNC [7]; Patient 0219): 31% | increase of apoptotic activity versus DMSO (CD34+ MDS BMMNC [7]; Patient 1115 (high-risk MDS)): 240% | decrease of AUC going from cohort 4 to cohort 5 (clinical): 47.6% | decrease of Cmax going from cohort 4 to cohort 5 (clinical): 15.4% | AUC(0-t) (clinical): 3410 ng·h/mL | AUC(0-t) (clinical; Mean): 4080 ng·h/mL | Cmax (clinical): 868 ng/mL | Cmax (clinical; Mean): 924 ng/mL | half-life (clinical; 75 mg/m2, T1/2): 8.23 h | half-life (clinical; 75 mg/m2, T1/2, Mean): 8 h | Tmax (clinical): 0 h | Tmax (clinical; Mean): 0 h | complete recovery rate (AML patients): 100% | average reduction of circulating blasts (circulating blasts): greater than 75%

Nc1ncn([C@@H]2O[C@H](CO)[C@@H](O)[C@H]2O)c(=O)n1 [azacitidine]
IC50 (MDS BMMC's): ~1000 nM | NOXA expression in AML cell line models [8]: increased | NOXA expression (Western blot), azacitidine ([8]; MV-4-11 AML cells, 24 hours): dose-dependent increase | MCL-1 dependency versus DMSO controls (MV-4-11 cells): sensitized MV4-11 cells to MCL-1 dependent apoptosis | MCL-1 dependency versus DMSO controls (MV-4-11 cells; listed as azacytidine): increased MCL-1 dependency | MCL-1 dependence (MV-4-11 cells; azacitidine 2.5 μM): 29.6% | NOXA and MCL-1 protein expression (Western blot) versus DMSO [6]: induced NOXA expression | increase in apoptotic activity versus DMSO (CD34+ MDS BMMNC [9]; azacitidine 0.3 μM 24 hours): 52% | increase in apoptotic activity versus DMSO (CD34+ MDS BMMNC [9]; azacitidine 0.6 μM 24 hours): 62% | increase of apoptotic activity versus DMSO (CD34+ MDS BMMNC [7]; Patient 0219): 20% | increase of apoptotic activity versus DMSO (CD34+ MDS BMMNC [7]; Patient 1115 (high-risk MDS)): 35% | priming trend across MDS bone marrow samples ([10]; 0.3, 1 and 2.5 μM azacitidine): dose-dependent increase in priming | percent priming ([10]; Patient 0216's blasts, 1 μM azacitidine): 115.3% | percent priming ([10]; Patient 0216's blasts, 2.5 μM azacitidine): 132.1% | percent priming ([10]; Patient 0515's blasts, 1 μM azacitidine): 82.1% | percent priming ([10]; Patient 0515's blasts, 2.5 μM azacitidine): 81.6% | percent priming ([10]; Patient 1060's blasts, 72-hour, 0.3 μM azacitidine): 45.8% | percent priming ([10]; Patient 1060's blasts, 72-hour, 1 μM azacitidine): 60.9% | maximum increase in priming ([10]; one patient sample): 35%

Nc1ncn([C@H]2C[C@H](O)[C@@H](CO)O2)c(=O)n1 [decitabine]
NOXA expression in AML cell line models [8]: increased | NOXA expression (Western blot), decitabine ([8]; MV-4-11 AML cells or MOLM13 cells, indicated times): time-dependent increase | NOXA expression (Western blot) in xenograft [11]: increase in NOXA expression | tumor growth inhibition (% TGI) (MOLM13 xenograft model): 58.6%
